Results published in PubChem BioAssay AID1963849 (Molecular Pharmacology Branch, DTP, NCI, 2024).

Test system: 299254-011-R-J1-PDC complex spheroid viability
Assay: Anticancer human tumor 299254-011-R-J1-PDC patient-derived melanoma cell line growth inhibition [POLQ]
Settings: for IC50: curve of first compound; for viability, T/C: stronger effect = lower value
How it was run: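 Complex spheroid viability model combining PDC tumour cells with endothelial (HUVEC) and MSC stromal cells. Novobiocin, ART-558 or RP6685 were tested singly and in combination with standard and investigational anticancer drugs. Each was titrated in half-log steps from near clinical Cmax, or from 10 microM where Cmax was unknown.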

[1] = second compound 0.0316 µM, first compound 0.0316 µM
[2] = second compound 0.0316 µM, first compound 0.1 µM
[3] = second compound 0.0316 µM, first compound 0.316 µM
[4] = second compound 0.0316 µM, first compound 1 µM
[5] = second compound 0.0316 µM, first compound 3.16 µM
[6] = second compound 0.0316 µM, first compound 10 µM
[7] = second compound 0.1 µM, first compound 0.0316 µM
[8] = second compound 0.1 µM, first compound 0.1 µM
[9] = second compound 0.1 µM, first compound 0.316 µM
[10] = second compound 0.1 µM, first compound 1 µM
[11] = second compound 0.1 µM, first compound 3.16 µM
[12] = second compound 0.1 µM, first compound 10 µM
[13] = second compound 0.316 µM, first compound 0.0316 µM
[14] = second compound 0.316 µM, first compound 0.1 µM
[15] = second compound 0.316 µM, first compound 0.316 µM
[16] = second compound 0.316 µM, first compound 1 µM
[17] = second compound 0.316 µM, first compound 3.16 µM
[18] = second compound 0.316 µM, first compound 10 µM
[19] = second compound 1 µM, first compound 0.0316 µM
[20] = second compound 1 µM, first compound 0.1 µM
[21] = second compound 1 µM, first compound 0.316 µM
[22] = second compound 1 µM, first compound 1 µM
[23] = second compound 1 µM, first compound 3.16 µM
[24] = second compound 1 µM, first compound 10 µM
[25] = second compound 3.16 µM, first compound 0.0316 µM
[26] = second compound 3.16 µM, first compound 0.1 µM
[27] = second compound 3.16 µM, first compound 0.316 µM
[28] = second compound 3.16 µM, first compound 1 µM
[29] = second compound 3.16 µM, first compound 3.16 µM
[30] = second compound 3.16 µM, first compound 10 µM
[31] = second compound 10 µM, first compound 0.0316 µM
[32] = second compound 10 µM, first compound 0.1 µM
[33] = second compound 10 µM, first compound 0.316 µM
[34] = second compound 10 µM, first compound 1 µM
[35] = second compound 10 µM, first compound 3.16 µM
[36] = second compound 10 µM, first compound 10 µM
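Also: spheroids exposed to drugs for one week before measurement.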
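For viability, T/C in this document: percent viability relative to DMSO vehicle control taken as 100%.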

## CCc1cc2c(N3CCc4c(cc(Cn5ccnc5)cc4-c4cn(C)nc4C(F)(F)F)C3=O)ccnc2c(OC)n1 + Nc1ccc(C#CCN(C(=O)Cc2ncc(C(F)(F)F)cc2C(F)(F)F)c2ccc(F)cc2)nn1
Second compound 0.0316 µM
  IC50: > 10 µM
Second compound 0.1 µM
  IC50: > 10 µM
Second compound 0.316 µM
  IC50: > 10 µM
Second compound 1 µM
  IC50: > 10 µM
Second compound 3.16 µM
  IC50: > 10 µM
Second compound 10 µM
  IC50: > 10 µM
[1]
  viability, T/C: 118%
[2]
  viability, T/C: 99.3%
[3]
  viability, T/C: 93.6%
[4]
  viability, T/C: 115%
[5]
  viability, T/C: 109%
[6]
  viability, T/C: 74.3%
[7]
  viability, T/C: 101%
[8]
  viability, T/C: 107%
[9]
  viability, T/C: 91.4%
[10]
  viability, T/C: 99.2%
[11]
  viability, T/C: 89.2%
[12]
  viability, T/C: 73.6%
[13]
  viability, T/C: 126%
[14]
  viability, T/C: 100%
[15]
  viability, T/C: 107%
[16]
  viability, T/C: 98.9%
[17]
  viability, T/C: 97.2%
[18]
  viability, T/C: 79.5%
[19]
  viability, T/C: 102%
[20]
  viability, T/C: 114%
[21]
  viability, T/C: 103%
[22]
  viability, T/C: 101%
[23]
  viability, T/C: 89%
[24]
  viability, T/C: 73.5%
[25]
  viability, T/C: 96.9%
[26]
  viability, T/C: 97.2%
[27]
  viability, T/C: 89.5%
[28]
  viability, T/C: 100%
[29]
  viability, T/C: 84.5%
[30]
  viability, T/C: 76.5%
[31]
  viability, T/C: 90.4%
[32]
  viability, T/C: 103%
[33]
  viability, T/C: 87%
[34]
  viability, T/C: 80.6%
[35]
  viability, T/C: 84.8%
[36]
  viability, T/C: 62.2%

## COc1cc2cc(C(=O)CCC(=O)O)sc2cc1OC + Nc1ccc(C#CCN(C(=O)Cc2ncc(C(F)(F)F)cc2C(F)(F)F)c2ccc(F)cc2)nn1
Second compound 0.0316 µM
  IC50: > 10 µM
Second compound 0.1 µM
  IC50: > 10 µM
Second compound 0.316 µM
  IC50: > 10 µM
Second compound 1 µM
  IC50: > 10 µM
Second compound 3.16 µM
  IC50: > 10 µM
Second compound 10 µM
  IC50: > 10 µM
[1]
  viability, T/C: 99%
[2]
  viability, T/C: 97.8%
[3]
  viability, T/C: 85.9%
[4]
  viability, T/C: 94%
[5]
  viability, T/C: 111%
[6]
  viability, T/C: 106%
[7]
  viability, T/C: 96.9%
[8]
  viability, T/C: 83.8%
[9]
  viability, T/C: 82.3%
[10]
  viability, T/C: 105%
[11]
  viability, T/C: 111%
[12]
  viability, T/C: 102%
[13]
  viability, T/C: 99.3%
[14]
  viability, T/C: 102%
[15]
  viability, T/C: 90.5%
[16]
  viability, T/C: 86.3%
[17]
  viability, T/C: 97.5%
[18]
  viability, T/C: 102%
[19]
  viability, T/C: 77.2%
[20]
  viability, T/C: 94.6%
[21]
  viability, T/C: 92.4%
[22]
  viability, T/C: 91.4%
[23]
  viability, T/C: 94.7%
[24]
  viability, T/C: 93.4%
[25]
  viability, T/C: 109%
[26]
  viability, T/C: 87.8%
[27]
  viability, T/C: 97.4%
[28]
  viability, T/C: 102%
[29]
  viability, T/C: 100%
[30]
  viability, T/C: 115%
[31]
  viability, T/C: 104%
[32]
  viability, T/C: 88%
[33]
  viability, T/C: 92.6%
[34]
  viability, T/C: 99.4%
[35]
  viability, T/C: 86.7%
[36]
  viability, T/C: 87.1%

## COc1ccc([C@@H](O)c2cc(-c3ncnc4cc(N5CCOCC5)ccc34)c(F)cc2Cl)nn1 + Nc1ccc(C#CCN(C(=O)Cc2ncc(C(F)(F)F)cc2C(F)(F)F)c2ccc(F)cc2)nn1
Second compound 0.0316 µM
  IC50: > 10 µM
Second compound 0.1 µM
  IC50: 9.37 µM
Second compound 0.316 µM
  IC50: > 10 µM
Second compound 1 µM
  IC50: 9 µM
Second compound 3.16 µM
  IC50: > 10 µM
Second compound 10 µM
  IC50: > 10 µM
[1]
  viability, T/C: 116%
[2]
  viability, T/C: 112%
[3]
  viability, T/C: 98%
[4]
  viability, T/C: 105%
[5]
  viability, T/C: 91.5%
[6]
  viability, T/C: 50%
[7]
  viability, T/C: 94.3%
[8]
  viability, T/C: 89.4%
[9]
  viability, T/C: 100%
[10]
  viability, T/C: 105%
[11]
  viability, T/C: 105%
[12]
  viability, T/C: 47%
[13]
  viability, T/C: 106%
[14]
  viability, T/C: 108%
[15]
  viability, T/C: 105%
[16]
  viability, T/C: 104%
[17]
  viability, T/C: 88.8%
[18]
  viability, T/C: 54.3%
[19]
  viability, T/C: 102%
[20]
  viability, T/C: 98.5%
[21]
  viability, T/C: 105%
[22]
  viability, T/C: 106%
[23]
  viability, T/C: 106%
[24]
  viability, T/C: 44.4%
[25]
  viability, T/C: 103%
[26]
  viability, T/C: 101%
[27]
  viability, T/C: 96.7%
[28]
  viability, T/C: 96%
[29]
  viability, T/C: 81.9%
[30]
  viability, T/C: 54.4%
[31]
  viability, T/C: 99.1%
[32]
  viability, T/C: 93.5%
[33]
  viability, T/C: 91.1%
[34]
  viability, T/C: 86.4%
[35]
  viability, T/C: 80.4%
[36]
  viability, T/C: 54%

## O=C(Nc1ccc(O)c(NS(=O)(=O)c2ccc(F)cc2)c1)c1ccc(-c2ccccc2)cc1 + Nc1ccc(C#CCN(C(=O)Cc2ncc(C(F)(F)F)cc2C(F)(F)F)c2ccc(F)cc2)nn1
Second compound 0.0316 µM
  IC50: 9.16 µM
Second compound 0.1 µM
  IC50: 8.49 µM
Second compound 0.316 µM
  IC50: 8.65 µM
Second compound 1 µM
  IC50: 9.34 µM
Second compound 3.16 µM
  IC50: 8.68 µM
Second compound 10 µM
  IC50: > 10 µM
[1]
  viability, T/C: 104%
[2]
  viability, T/C: 119%
[3]
  viability, T/C: 97.4%
[4]
  viability, T/C: 98.2%
[5]
  viability, T/C: 97.3%
[6]
  viability, T/C: 46.1%
[7]
  viability, T/C: 102%
[8]
  viability, T/C: 99.8%
[9]
  viability, T/C: 91.4%
[10]
  viability, T/C: 101%
[11]
  viability, T/C: 95.6%
[12]
  viability, T/C: 42.4%
[13]
  viability, T/C: 108%
[14]
  viability, T/C: 88.4%
[15]
  viability, T/C: 107%
[16]
  viability, T/C: 91.8%
[17]
  viability, T/C: 85.9%
[18]
  viability, T/C: 44.9%
[19]
  viability, T/C: 108%
[20]
  viability, T/C: 94.5%
[21]
  viability, T/C: 95.7%
[22]
  viability, T/C: 97.5%
[23]
  viability, T/C: 87.3%
[24]
  viability, T/C: 47.2%
[25]
  viability, T/C: 106%
[26]
  viability, T/C: 92.1%
[27]
  viability, T/C: 92.7%
[28]
  viability, T/C: 86.8%
[29]
  viability, T/C: 79.9%
[30]
  viability, T/C: 45.1%
[31]
  viability, T/C: 83.2%
[32]
  viability, T/C: 92.4%
[33]
  viability, T/C: 88%
[34]
  viability, T/C: 76%
[35]
  viability, T/C: 74.7%
[36]
  viability, T/C: 50.6%
